What is called pKa is the negative logarithm of the acid dissociation constant.

For `Cl.Fc1ccc2c(c1)N(CCCN1CCOCC1)c1cc(F)ccc1CC2`, the pKa came out at 7.6.

Regarding `C[C@H](CO)Nc1nc(SCc2cccc(F)c2F)nc2[nH]c(=O)sc12`, the pKa was found to be 6.7.

In the case of `CCN(CC)CCCC(C)Nc1c2ccc(Cl)cc2nc2ccc(OC)cc12` (stereo not drawn), the pKa worked out at 10.2.

In the case of `Cc1ccc2nc3ccccc3c(Nc3ccc(NS(C)(=O)=O)cc3)c2c1`, the pKa is 7.23.

For the molecule `COc1ccc2c(c1)N(C[C@H](C)CN(C)C)c1ccccc1S2`, the pKa was 9.19.

The molecule `CCCCCS(=O)(=O)Nc1ccc(Nc2c3ccccc3nc3ccccc23)cc1` showed a pKa of 7.19.

As to `CS(=O)(=O)Nc1ccc(Nc2c3ccccc3nc3ccc([N+](=O)[O-])cc23)cc1`, the pKa came out at 5.42.

`CS(=O)(=O)Nc1ccc(Nc2c3ccccc3nc3ccc(C(N)=O)cc23)cc1` displayed a pKa of 6.34.

Take `Cc1c2ccccc2nc2c(C(O)=NCCN(C)C)cccc12`: the pKa worked out at 4.34.

For `COc1cc(NS(C)(=O)=O)ccc1Nc1c2ccccc2nc2c(OCCCC(N)=O)cccc12`, the pKa was 7.36.

In the case of `COc1cc(NS(C)(=O)=O)ccc1Nc1c2ccccc2nc2ccc(N)cc12`, the pKa amounted to 7.37.

With `CC(C)Oc1ncc(-c2nc(-c3cccc4c3OCCNC4CCCC(=O)O)no2)cc1Cl` (stereo not drawn), the pKa was 7.98.

As to `CCCCS(=O)(=O)Nc1ccc(Nc2c3ccccc3nc3ccccc23)cc1`, the pKa stood at 7.18.

As to `CCc1cccc2c3c([nH]c12)C(CC)(CC(=O)O)OCC3` (stereo not drawn), the pKa was found to be 4.7.

The molecule `CN(C)CCN=C(O)c1cccc2cc3ccccc3nc12` returned a pKa of 3.54.

For `CCC12CCC(=O)C=C1c1c(cc(OCC(=O)O)c(Cl)c1Cl)C2` (stereo not drawn), the pKa was 3.6.

Turning to `CN(C)CCCCc1ccc(C2COC2)cc1`, the pKa worked out at 9.9.

`Cc1nc(N)ncc1CNC(=O)Cn1c(C)cnc(NCCc2ccccc2)c1=O` returned a pKa of 4.2.

For `CCCCCCOC(=O)c1ccc(OS(N)(=O)=O)cc1`, the pKa came out at 8.52.

For `c1c[nH]nn1`, the pKa turned out to be 1.17.

On to `C/C(=N\N=C(/S)N/N=C(\S)Nc1ccccc1Cl)c1ccccn1`, for which the pKa worked out at 7.24.

In turn, `COc1cccc(S(=O)(=O)Nc2cccn(CC(=O)NCc3ccc(C(=N)N)cc3)c2=O)c1` displayed a pKa of 10.2.

As for `Cc1ccc(-c2nc3ccc(C)cn3c2CC(=O)N(C)C)cc1`, the pKa turned out to be 6.02.

`CC(C)Oc1ccc(-c2nc(-c3ccc4c(c3)CCN(C(CO)CO)CC4)no2)cc1C#N` yielded a pKa of 7.8.

On to `Cc1cnc(NCCc2ccccc2)c(=O)n1CC(=O)NCc1ccc(C(=N)N)s1`, for which the pKa was found to be 10.3.

As for `N[C@H]1C[C@@H]1c1ccccc1`, the pKa came out at 8.5.

`CN(C)CCC1(Cc2ccc(C(C)(C)C)cc2)COC1` showed a pKa of 9.2.

In turn, `O=C(Nc1ccccc1)Nc1ccc(Nc2c3ccccc3nc3ccccc23)cc1` came in with a pKa of 7.67.

In turn, `NC(=O)Cc1ccc(Nc2c3ccccc3nc3ccccc23)cc1` yielded a pKa of 7.43.

As for `Cn1ccnc1`, the pKa turned out to be 7.12.

For `COc1cc(NS(C)(=O)=O)ccc1Nc1c2ccccc2nc2c(C#N)cccc12`, the pKa was determined as 4.87.

In the case of `Cc1cnc(NCCc2ccccc2)c(=O)n1CC(=O)NCc1cnc(N)cn1`, the pKa turned out to be 2.7.

The molecule `CS(=O)(=O)Nc1cccc(Nc2c3ccccc3nc3ccccc23)c1` yielded a pKa of 6.85.

Regarding `CCCCNCc1ccc(C(=O)c2csc(S(N)(=O)=O)c2)cc1.Cl`, the pKa came to 8.12.

`Cn1ccnc1Br` showed a pKa of 3.82.

`CC(CN(C)C)CN1c2ccccc2CCc2ccccc21` (stereo not drawn) displayed a pKa of 9.24.

As to `Brc1cccc(Br)c1N=C1NCCN1`, the pKa was determined as 7.8.

The molecule `Fc1ccc(Nc2c3ccccc3nc3ccccc23)cc1` came in with a pKa of 7.5.

In turn, `CNCC[C@@H](Oc1ccccc1C)c1ccccc1` gave a pKa of 10.1.

`O=C(c1ccc(C(F)(F)F)cc1)N1CCC(=Cc2ccc(C3=NCCO3)cc2)CC1`: the pKa came out at 4.7.

Turning to `c1ccc(-c2ncc[nH]2)nc1`, the pKa turned out to be 5.36.

For `Cc1nc2c(/C=C\c3ccccc3)cccn2c1C`, the pKa stood at 7.2.

As to `CCC1(c2ccccc2)C(=O)NC(=O)NC1=O`, the pKa turned out to be 7.5.

Molecule `NCCCC(F)(F)F` displayed a pKa of 9.7.

`CNC(=O)COc1cccc2c(Nc3ccc(NS(C)(=O)=O)cc3OC)c3ccccc3nc12` gave a pKa of 7.35.

Turning to `CN(c1ccccc1Nc1c2ccccc2nc2ccccc12)S(C)(=O)=O`, the pKa was determined as 6.97.

Molecule `CC(C)(C)NC[C@H](O)COc1nsnc1N1CCOCC1` had a pKa of 8.8.

Consider `COCC1CC(C(=O)NC[C@H]2CCCO2)CN(Cc2nc(N3CCOCC3)oc2C)C1` (stereo partly drawn), for which the pKa is 7.8.

Take `C/C(=N\N=C(/S)N/N=C(\S)Nc1cccc(I)c1)c1ccccn1`: the pKa amounted to 7.03.

Molecule `CS(=O)(=O)Nc1ccc(Nc2c3ccccc3nc3cc(C#N)ccc23)cc1` showed a pKa of 5.75.

For `Oc1cc(C2CCNCC2)sn1`, the pKa turned out to be 10.7.

The molecule `Br.Oc1noc2c1CNCC2` had a pKa of 4.3.

Take `CC(=O)Nc1ccccc1Nc1c2ccccc2nc2ccccc12`: the pKa turned out to be 7.24.

In turn, `O=S(=O)(Nc1ccc(Nc2c3ccccc3nc3ccccc23)cc1)c1ccccc1` came in with a pKa of 7.09.

Turning to `O=C(O)CCc1ccc(Nc2c3ccccc3nc3ccccc23)cc1`, the pKa turned out to be 7.91.

Regarding `COc1cc(NS(C)(=O)=O)ccc1Nc1c2ccccc2nc2cc(NC(C)=O)ccc12`, the pKa came out at 7.56.

Consider `CCCCc1nc(Cl)c(COC)n1Cc1ccc(NC(=O)c2ccccc2S(=O)(=O)O)cc1`, for which the pKa is -6.6.

The molecule `CCCCOC(=O)c1ccc(OS(N)(=O)=O)cc1` came in with a pKa of 8.07.

Turning to `Cc1cc(=O)n(-c2ccccc2)n1C`, the pKa came to 1.44.

The molecule `NS(=O)(=O)c1ccc(Nc2c3ccccc3nc3ccccc23)cc1` returned a pKa of 6.11.

In turn, `CCCCNC(=O)NS(=O)(=O)c1ccc(C)cc1` had a pKa of 5.3.

Molecule `Cc1nc(N)ncc1CNC(=O)Cn1c(C)ccc(NS(=O)(=O)Cc2cccc3c2OCCO3)c1=O` returned a pKa of 4.2.

`O=P(O)(O)CCc1ccccc1` displayed a pKa of 2.34.

The molecule `CS(=O)(=O)Nc1ccc(Nc2c3ccccc3nc3ccncc23)cc1` returned a pKa of 5.73.

`Cc1cnc(NCC2(c3ccc(Cl)cc3)CCC2)c(=O)n1CC(=O)NCc1cnc(N)cn1` displayed a pKa of 2.7.

In turn, `CS(=O)(=O)Nc1ccc(Nc2c3ccccc3nc3ccccc23)cc1.Cl` had a pKa of 7.19.

Regarding `COc1cc(NS(C)(=O)=O)ccc1Nc1c2ccccc2nc2cc(C)ccc12`, the pKa was 7.7.

In turn, `CCc1cccc(CC)c1NC1=NCCN1` returned a pKa of 10.6.

As for `CCN(C)C`, the pKa amounted to 10.2.

As to `Cn1ccnc1F`, the pKa was found to be 2.3.

As for `CCc1ccc2c(Nc3ccc(NS(C)(=O)=O)cc3OC)c3ccccc3nc2c1`, the pKa came out at 7.65.

Molecule `CS(=O)(=O)Nc1ccc(Nc2c3ccccc3nc3ccccc23)c(N)c1` showed a pKa of 7.65.

In turn, `COC(=O)c1ccc(Nc2c3ccccc3nc3ccccc23)cc1` displayed a pKa of 6.21.

In the case of `Ic1ccccc1Nc1c2ccccc2nc2ccccc12`, the pKa was 6.47.

In turn, `Cl.Cl.NCCS` returned a pKa of 9.11.

With `Fc1ccccc1Nc1c2ccccc2nc2ccccc12`, the pKa was 6.84.

`CN1C=CN(C2NC(C(F)(F)F)=CN2c2ccc(S(N)(=O)=O)cc2)C=C1` (stereo not drawn) gave a pKa of 7.34.

`CC12CC3(C)CC(C)(C1)CC(N)(C2)C3` had a pKa of 10.6.

As for `Cc1cc(Cl)cc(C)c1N=C1NCCN1`, the pKa was 10.2.

For `COc1cc(NS(C)(=O)=O)ccc1Nc1c2ccccc2nc2c(F)cccc12`, the pKa came out at 6.33.

`NC(=O)CCCc1ccc(Nc2c3ccccc3nc3ccccc23)cc1` had a pKa of 7.67.

Molecule `CSc1nccn1C` returned a pKa of 5.95.

For `O=[N+]([O-])c1ncc[nH]1`, the pKa is 0.81.

Consider `Cc1ccccc1Nc1c2ccccc2nc2ccccc12`, for which the pKa came to 7.76.

With `COc1ccc(-c2nnc(C(=O)N3CC(Oc4ccc(CN5CCCC56COC6)cc4)C3)o2)cc1`, the pKa was determined as 6.

Molecule `CSc1ccc2c(c1)N(CCC1CCCCN1C)c1ccccc1S2` (stereo not drawn) registered a pKa of 9.5.

`CS(=O)(=O)Nc1ccc(Nc2c3ccccc3nc3cccc([N+](=O)[O-])c23)cc1` came in with a pKa of 4.79.

Regarding `Cc1ccc(NS(=O)(=O)Cc2ccccc2)c(=O)n1CC(=O)NC[C@H]1CN=C(N)NC1`, the pKa was found to be 14.

As for `Clc1ccc(Cl)c(N=C2NCCN2)c1`, the pKa was 8.5.

`O=C(NCC1CCCCN1)c1cc(OCC(F)(F)F)ccc1OCC(F)(F)F` (stereo not drawn) registered a pKa of 9.3.

`Cc1ccc(NS(=O)(=O)Cc2ccccc2)c(=O)n1CC(=O)NCc1cnc(N)nc1`: the pKa was 3.9.

For `CN1CCN2c3ncccc3Cc3ccccc3C2C1` (stereo not drawn), the pKa came out at 7.3.

On to `O=S(=O)(O)CCc1ccc(Nc2c3ccccc3nc3ccccc23)cc1`, for which the pKa is 7.77.

For the molecule `CS(=O)(=O)Nc1ccc(Nc2c3ccccc3nc3ccccc23)cc1`, the pKa worked out at 7.19.

As to `CCCCCCS(=O)(=O)Nc1ccc(Nc2c3ccccc3nc3ccccc23)cc1`, the pKa was determined as 7.17.

Molecule `CN1CCC[C@H]1c1cccnc1` yielded a pKa of 8.1.

As to `COc1cc(NS(C)(=O)=O)ccc1Nc1c2ccccc2nc2c(C(=O)NCC(N)=O)cccc12`, the pKa is 6.18.

Regarding `OB(O)c1ccccc1`, the pKa was found to be 8.8.

In turn, `COc1cc(NS(C)(=O)=O)ccc1Nc1c2ccccc2nc2cc(Cl)ccc12` came in with a pKa of 6.84.

Molecule `CN(c1ccc(Nc2c3ccccc3nc3ccccc23)cc1)S(C)(=O)=O` returned a pKa of 6.95.

In the case of `COc1ccc(Cl)cc1C(=O)NCCc1ccc(S(=O)(=O)NC(=O)NC2CCCCC2)cc1`, the pKa was found to be 5.3.

In turn, `Cc1cnc(NCCc2ccccc2)c(=O)n1CC(=O)NCc1ccc(C(=N)N)cc1` returned a pKa of 10.2.

In the case of `CC(=O)N[C@@H](Cc1cc(F)cc(F)c1)[C@H](O)CNC1(c2cc(C(C)(C)C)ncn2)CCCCC1`, the pKa came out at 6.7.

Regarding `COc1cc(NS(C)(=O)=O)ccc1Nc1c2ccccc2nc2cc(F)ccc12`, the pKa stood at 7.05.

The molecule `Nc1ccc(Nc2c3ccccc3nc3ccccc23)cc1` registered a pKa of 8.36.

For `Fc1cccc(F)c1N=C1NCCN1`, the pKa came out at 8.18.

With `COC(=O)[C@H]1[C@H]2C[C@@H]3c4[nH]c5cc(OC)ccc5c4CCN3C[C@H]2C[C@@H](OC(=O)c2cc(OC)c(OC)c(OC)c2)[C@@H]1OC`, the pKa was 7.25.

Take `Oc1nsc2c1CNCC2`: the pKa was 9.2.

(Values after the pKa sets of Baltruschat and Czodrowski (2020).)
